The source of these data is EP2242752B1, “[…] IMIDAZOLES AS HEPATITIS C VIRUS INHIBITORS” (Bristol-Myers Squibb Company, priority 2008, dated 2009).

pEC50: −log10 of the molar value.

The experiment deals with HCV 1b genotype. The experiment is described as follows: HCV Replicon assay (HCV 16-377-neo replicon cells). The class given is cell-based. To be noted: Hepatitis C virus; HCV 1b genotype replicon cells; read-out: EC50 ranges against HCV 1b. The procedure:
An HCV Replion assay was utilized in the present disclosure, and was prepared, conducted and validated as described in commonly owned PCT/US2006/022197 and in O'Boyle et. al. Antimicrob Agents Chemother. 2005 Apr;49(4): 1346-53.
HCV 16-377-neo replicon cells were used to test the currently described compound series as well as cells resistant to compound A due to a Y2065H mutation in NS5A (described in application PCT/US2006/022197). The compounds tested were determined to have more than 10-fold less inhibitory activity on cells resistant to compound A than wild-type cells indicating a related mechanism of action between the two compound series. Thus, the compounds of the present disclosure can be effective to inhibit the function of the HCV NS5A protein and are understood to be as effective in combinations as previously described in application PCT/US2006/022197 and commonly owned WO/O4014852. Further, the compounds of the present disclosure can be effective against the HCV 1b genotype. It should also be understood that the compounds of the present disclosure can inhibit multiple genotypes of HCV. […] In one embodiment compounds of the present disclosure are active against the 1a, 1b, 2a, 2b, 3a, 4a, and 5a genotypes.
(Replicon systems follow genome replication, usually without infectious particles.)
What is called pEC50 is the EC50 on a negative log10 scale, so that one unit is a factor of ten. For `COC(=O)N[C@@H](C(=O)N1[C@@H](C)CC[C@H]1c1nc(-c2ccc(-c3ccc(-c4c[nH]c([C@@H]5CC[C@H](C)N5C(=O)[C@H](NC(=O)OC)c5ccccc5)n4)cc3)cc2)c[nH]1)c1ccccc1` [Example M153, dimethyl (4,4'-biphenyldiylbis(1H-imidazole-4,2-diyl((2S,5S)-5-methyl-2,1-pyrrolidinediyl)((1R)-2-oxo-1-phenyl-2,1-ethanediyl)))biscarbamate], the negative logarithm of the EC50 (pEC50) is 9.00 to 12.00.

With `COC(=O)N[C@@H](C)C(=O)N1CC2(CC2)C[C@H]1c1nc(-c2ccc(-c3ccc(-c4c[nH]c([C@@H]5CC6(CC6)CN5C(=O)[C@H](C)NC(=O)OC)n4)cc3)cc2)c[nH]1` [Example M147, methyl ((1S)-2-((6S)-6-(4-(4'-(2-((6S)-5-(N-(methoxycarbonyl)-L-alanyl)-5-azaspiro[2.4]hept-6-yl)-1H-imidazol-4-yl)-4-biphenylyl)-1H-imidazol-2-yl)-5-azaspiro[2.4]hept-5-yl)-1-methyl-2-oxoethyl)carbam ate], the pEC50 was 9.00 to 12.00.

Regarding `CC(=O)N1[C@@H](C)CC[C@H]1c1nc(-c2ccc(-c3ccc(-c4cnc([C@@H]5CC[C@H](C)N5C(C)=O)[nH]4)cc3)cc2)c[nH]1` [Example M162, 2-((2S,5S)-1-acetyl-5-methyl-2-pyrrolidinyl)-4-(4'-(2-((2S,5S)-1-acetyl-5-methyl-2-pyrrolidinyl)-1H-imidazol-5-yl)-4-biphenylyl)-1H-imidazole], the pEC50 was 7.00 to 9.00.

Turning to `CC(C)[C@H](NC(=O)C1CC1)C(=O)N1[C@@H]2C[C@@H]2C[C@H]1c1ncc(-c2ccc(-c3ccc(-c4cnc([C@@H]5C[C@H]6C[C@H]6N5C(=O)[C@@H](NC(=O)C5CC5)C(C)C)[nH]4)cc3)cc2)[nH]1` [Example M141, N((1S)-1-(((1R,3S,SR)-3-(4-(4'-(2-((1R,3S,SR)-2-((2S)-2-((cyclopropylcarbonyl)amino)-3-methylbutanoyl)-2-azabicyclo[3.1.0]hex-3-yl)-1H imidazol-4-y/)-4-biphenyly/)-1H-imidazol-2-yl)-2-azabicyclo[3.1. 0]hex-2-yl)carbonyl)-2-methylpropyl)cyclopropanecarbamate], the pEC50 is 7.00 to 9.00.

For the compound `C[C@H]1CC[C@@H](c2nc(-c3ccc(-c4ccc(-c5c[nH]c([C@@H]6CC[C@H](C)N6C(=O)Cc6ccccc6)n5)cc4)cc3)c[nH]2)N1C(=O)Cc1ccccc1` [Example M159, 4,4'-(4,4'-biphenyldiyl)bis(2-((2S,5S)-5-methyl-1-(phenylacetyl)-2-pyrrolidinyl)-1H-imidazole)], the negative logarithm of the EC50 (pEC50) is 9.00 to 12.00.

Consider `CC[C@H](NC(=O)OC)C(=O)N1CC2(CC2)C[C@H]1c1nc(-c2ccc(-c3ccc(-c4c[nH]c([C@@H]5CC6(CC6)CN5C(=O)[C@H](CC)NC(=O)OC)n4)cc3)cc2)c[nH]1` [Example M148, dimethyl (4,4'-biphenyldiylbis(1H-imidazole-4,2-diyl(6S)-5-azaspiro[2.4]heptane-6,5-diyl((2S)-1-oxo-1,2-butanediyl)))biscarbamate], for which the negative-log EC50 (pEC50) is 9.00 to 12.00.

Consider `Cc1[nH]c([C@@H]2CCCN2C(=O)[C@@H](c2ccccc2)N(C)C)nc1-c1ccc(-c2ccc(-c3c[nH]c([C@@H]4CCCN4C(=O)[C@@H](c4ccccc4)N(C)C)n3)cc2)cc1` [Example E5, (1R)-2-((2S)-2-(4-(4'-(2-((2S)-1-((2R)-2-(dimethylamino)-2-phenylacetyl)-2-pyrrolidinyl)-1H-imidazol-4-yl)-4-biphenylyl)-5-methyl-1 H-imidazol-2-yl)-1-pyrrolidinyl)-N,N-dimethyl-2-oxo-1-phenylethanamine], for which the pEC50 is 9.00 to 12.00.

On to `COC(=O)N[C@H](C(=O)N1[C@@H](C)CC[C@H]1c1nc(-c2ccc(-c3ccc(-c4c[nH]c([C@@H]5CC[C@H](C)N5C(=O)[C@@H](NC(=O)OC)C(C)C)n4)cc3)cc2)c[nH]1)C(C)C` [Example M151, methyl ((1S)-1-(((2S,5S)-2-(4-(4'-(2-((2S,5S)-1-((2S)-2-((methoxycarbonyl)amino)-3-methylbutanoyl)-5-methyl-2-pyrrolidinyl)-1H-imidazol-4-yl)-4-biphenylyl)-1H-imidazol-2-yl)-5-methyl-1-pyrrolidinyl)carbonyl)-2-methylpropyl)carbamate], for which the pEC50 was 9.00 to 12.00.

In the case of `Cc1nc([C@@H]2CCCN2C(=O)[C@@H](c2ccccc2)N(C)C)[nH]c1-c1ccc(-c2ccc(-c3[nH]c([C@@H]4CCCN4C(=O)[C@@H](c4ccccc4)N(C)C)nc3C)cc2)cc1` [Example E5g, (1R,1'R)-2,2'-(4,4'-biphenyldiylbis((4-methyl-1H-imidazole-5,2-diyl)(2S)-2,1-pyrrolidinediyl))bis (N,N-dimethyl-2-oxo-1-phenylethanamine)], the pEC50 is 9.00 to 12.00.

`COC(=O)Cc1[nH]c([C@@H]2CCCN2C(=O)[C@@H](NC(=O)OC)[C@@H](C)OC)nc1-c1ccc(-c2ccc(-c3c[nH]c([C@@H]4CCCN4C(=O)[C@@H](NC(=O)OC)[C@@H](C)OC)n3)cc2)cc1` [Example J14b, methyl (2-((2S)-1-(N-(methoxycarbonyl)-O-methyl-L-threonyl)-2-pyrrolidinyl)-4-(4'-(2-((2S)-1-(N-(methoxycarbonyl)-O-methyl-L-threonyl)-2-pyrrolidinyl)-1H-imidazol-4-yl)4-biphenylyl)-1H-imidazol-5-yl)acetate]: the pEC50 was 9.00 to 12.00.

For `Cc1nc([C@@H]2CCCN2C(=O)[C@@H](c2ccccc2)N2CCCCC2)[nH]c1-c1ccc(-c2ccc(-c3[nH]c([C@@H]4CCCN4C(=O)[C@@H](c4ccccc4)N4CCCCC4)nc3C)cc2)cc1` [Example E5i, 1,1'-(4,4'-biphenyldiylbis((4-methyl-1H-imidazole-5,2-diyl)(2S)-2,1-pyrrolidinediyl((1R )-2-oxo-1-phenyl-2,1-ethanediyl)))dipiper idine], the pEC50 was 9.00 to 12.00.

Take `COC(=O)NCC(=O)N1[C@@H](C)CC[C@H]1c1nc(-c2ccc(-c3ccc(-c4c[nH]c([C@@H]5CC[C@H](C)N5C(=O)CNC(=O)OC)n4)cc3)cc2)c[nH]1` [Example M155, methyl (2-((2S,5S)-2-(4-(4'-(2-((2S,5S)-1-(((methoxycarbonyl)amino)acetyl)-5-methyl-2-pyrrolidinyl)-1H-imidazol-4-yl)-4-biphenylyl)-1H-imidazol-2-yl)-5-methyl-1-pyrrolidinyl)-2-oxoethyl)carbamate]: the negative-log EC50 (pEC50) is 7.00 to 9.00.

Turning to `COC(=O)N[C@@H](C(=O)N1[C@@H]2C[C@H]2C[C@H]1c1nc(-c2ccc(-c3ccc(-c4c[nH]c([C@@H]5C[C@@H]6C[C@H]6N5C(=O)[C@H](NC(=O)OC)c5ccccc5)n4)cc3)cc2)c[nH]1)c1ccccc1` (mixture of isomers) [Example M137, dimethyl (4,4'-biphenyldiylbis(1H-imidazole-4,2-diyl(1R,3S,SR)-2-azabicyclo[3.1.0]hexane-3,2-diyl((1R)-2-oxo-1-phenyl-2,1-ethanediyl)))biscarbamate], the pEC50 is 9.00 to 12.00.

Take `CC(C)[C@@H](O)C(=O)N1[C@@H](C)CC[C@H]1c1nc(-c2ccc(-c3ccc(-c4c[nH]c([C@@H]5CC[C@H](C)N5C(=O)[C@H](O)C(C)C)n4)cc3)cc2)c[nH]1` [Example M160, (2R,2'R)-1,1'-(4,4'-biphenyldiylbis(1H-imidazole-4,2-diyl((2S,5S)-5-methyl-2,1-pyrrolidinediyl)))bis(3-methyl-1-oxo-2-butanol)]: the negative logarithm of the EC50 (pEC50) was 7.00 to 9.00.

`COC(=O)N[C@H](C(=O)N1CC2(CC2)C[C@H]1c1nc(-c2ccc(-c3ccc(-c4c[nH]c([C@@H]5CC6(CC6)CN5C(=O)[C@@H](NC(=O)OC)C(C)C)n4)cc3)cc2)c[nH]1)C(C)C` [Example M145, methyl ((1S)-1-(((6S)-6-(4-(4'-(2-((6S)-5-((2S)-2-((methoxycarbonyl)amino)-3-methylbutanoyl)-5-azaspiro[2.4]hept-6-yl)-1H-imidazol-4-yl)-4-biphenylyl)-1H-imidazol-2-yl)-5-azaspiro[2.4]hept-5-yl)carbonyl)-2-methylpropyl)carbamate]: the negative-log EC50 (pEC50) was 9.00 to 12.00.

In the case of `COC(=O)N[C@@H](C(=O)N1CC2(CC2)C[C@H]1c1nc(-c2ccc(-c3ccc(-c4c[nH]c([C@@H]5CC6(CC6)CN5C(=O)[C@H](NC(=O)OC)c5ccccc5)n4)cc3)cc2)c[nH]1)c1ccccc1` [Example M150, dimethyl (4,4'-biphenyldiylbis(1H-imidazole-4,2-diyl(6S)-5-azaspiro[2.4]heptane-6,5-diyl((1R)-2-oxo-1-phenyl-2,1-ethanediyl)))biscarbamate], the pEC50 is 9.00 to 12.00.

As to `CC(C)[C@H](N)C(=O)N1[C@@H]2C[C@@H]2C[C@H]1c1ncc(-c2ccc(-c3ccc(-c4cnc([C@@H]5C[C@H]6C[C@H]6N5C(=O)[C@@H](N)C(C)C)[nH]4)cc3)cc2)[nH]1` [Example M140a-ii], the pEC50 is 7.00 to 9.00.

For the compound `COC(=O)N[C@@H](C)C(=O)N1[C@@H]2C[C@@H]2C[C@H]1c1ncc(-c2ccc(-c3ccc(-c4cnc([C@@H]5C[C@H]6C[C@H]6N5C(=O)[C@H](C)NC(=O)OC)[nH]4)cc3)cc2)[nH]1` [Example M132, methyl ((1S)-2-((1R,3S,5R)-3-(4-(4'-(2-((1R,3S,SR)-2-(N(methoxycarbonyl)-L-alanyl)-2-azabicyclo[3.1.0]hex-3-yl)-1H-imidazol-4-yl)-4-biphenyl)-1H-imidazol-2-yl)-2-azabicyclo[3.1.0]hex-2-yl)-1-methyl-2-oxoethyl)carbamate], the pEC50 was 9.00 to 12.00.
